Read-outs that look alike come from different tables or passages of the source.
Experiments:
Candida albicans = test system: Candida albicans; design: species or system Maus; details: in vivo; for Überlebenszeit (bez. auf Fluconazol = 100 % ): 50 mg/kg
Text: Als Beispiele für die systemische in vivo-Wirksamkeit der Verbindungen dient die systemische Candida albicans Infektion bei der Maus.
Ziel dieser Methode ist es, den Effekt von Präparaten auf eine systemische Candida albicans Infektion zu ermitteln. Die Infektion führt innerhalb von 2-4 Tagen zum Tod der Tiere.
Beschreibung der Methode: Albino Mäuse (NMRI, Männchen, 15-20 g Körpergewicht) werden intravenös mit Candida albicans Hefezellen infiziert (Stamm 200/175), die frisch auf Malzagar vorkultiviert wurden und in physiologischer Kochsalzlösung suspendiert wurden. Die Infektionsdosis, die in dem angegebenen Zeitrahmen zur Lethalität führt, wurde photometrisch eingestellt und enthielt eine Million Hefezellen pro Maus.
Die zu prüfenden Verbindungen werden entweder alleine oder in Kombination mit einem Standardantimykotikum verabreicht. Im durchgeführten Test wurde ein Kombinationspräparat verwendet, wobei als Standardantimykotikum Fluconazol (Fa. Pfizer) diente. Applikationswege sind je nach Substanzgruppe unterschiedlich, wobei der oralen Applikation der Vorzug gegeben wird. Die Mäuse werden 4 Wochen beobachtet, die Mortalität wird täglich registriert, und die Überlebenszeiten der einzelnen Gruppen werden gemittelt und untereinander verglichen. Gruppengröße beträgt durchschnittlich 10 Tiere.
Der Vergleich der Mittelwerte geschieht mit dem Students T Test.
Dosierungen: Fluconazol jeweils 8 x p.o. 50 mg/kg/Tag β-Hydroxy-ethylamin jeweils 14 x p.o. 50 mg/kg/Tag

[1] = test system: liposomalen Phospholipase A1 von Säugern; details: in-vitro-Test; Biochem. Pharmacol. 34, 521-24, 1985; cited from earlier work
[2] = test system: Trichophyton mentagrophytes; assay: Percent killing of Trichophyton mentagrophytes in vitro; format: cell-based; details: nach 14 h in aqua dest., read-out: %-Abtötung von Trichophyton mentagrophytes; for killing at 2.5 µg/mL: 2,5 µg/ml
Description: (Werte in %-Abtötung von Trichophyton mentagrophytes nach 14 h in aqua dest.)

Plasmopara viticola = assay: Fungicidal activity on vine seedlings inoculated with Plasmopara viticola; format: in vivo, Weinsämlinge; details: untreated infected control = 100
Description: Weinsämlinge wurden ca. 6 Wochen nach der Aussaat mit wäßrigen Suspensionen der zu untersuchenden Verbindungen gleichmäßig benetzt. Nach dem Antrocknen des Spritzbelages wurden die Pflanzen mit einer Sporensuspension von Plasmopara viticola inokuliert und für kurze Zeit in eine Klimakammer (23 °C und 80-90 % rel. Luftfeuchte) gestellt. Nach einer Inkubationszeit von 7 Tagen wurden die Pflanzen zur Sporulation des Pilzes erneut für einige Stunden in die Klimakammer gestellt. Anschließend erfolgte die Auswertung des Befalls. Der Befallsgrad wird ausgedrückt in % befallener Blattfläche im Vergleich zu den unbehandelten, infizierten Kontrollpflanzen und ist in Tabelle 4 wiedergegeben.

[3] = 125 ppm Wirkstoff (mg Wirkstoff/Liter Spritzbrühe)
[4] = 250 ppm Wirkstoff (mg Wirkstoff/Liter Spritzbrühe)
[5] = 500 ppm Wirkstoff (mg Wirkstoff/Liter Spritzbrühe)

## OC(Cn1cncn1)(Cn1cncn1)c1ccc(F)cc1F [Fluconazol, reference compound]
Candida albicans; po
  Überlebenszeit (bez. auf Fluconazol = 100 % ): 100%

## CC(C)NCC(O)COc1cccc2ccccc12 (centres unmarked) [Propranolol]
[1]
  Hemmwirkung gegenüber Phospholipase aus Leberzellen: wirksamste Substanz

## Cc1cc(COc2ccc(Oc3ccc(Cl)cc3)cc2)n(O)c(=O)c1 [Rilopirox, reference compound]
[2]
  killing at 5 µg/mL: 96.2%
  killing at 10 µg/mL: 100%
  killing at 20 µg/mL: 100%
  killing at 40 µg/mL: 100%
  killing at 80 µg/mL: 100%
  killing at 2.5 µg/mL: 94.1%

## CC(C)CC(C)NCC(O)COc1ccccc1C1CCCC1 (centres unmarked) [Verbindung 1.10]
Candida albicans
  Überlebenszeit (bez. auf Fluconazol = 100 % ): 149%

## CC(C)(C)c1ccc(OCC(O)CNc2ccccc2)cc1 (centres unmarked) [Verbindung 1.16]
Candida albicans
  Verlängerung der Überlebenszeit: 65%
  Überlebenszeit (bez. auf Fluconazol = 100 % ): 165%

## COc1ccc(CC(C)(C)NCC(O)COc2ccccc2C2CCCC2)cc1 (centres unmarked) [Verbindung 1.18]
[2]
  killing at 5 µg/mL: 95.7%
  killing at 10 µg/mL: 100%
  killing at 20 µg/mL: 100%
  killing at 40 µg/mL: 100%
  killing at 80 µg/mL: 100%
  killing at 2.5 µg/mL: 79.3%

## CC(C)(C)c1ccc(OCC(O)CNCc2cccs2)cc1 (centres unmarked) [Verbindung 1.32]
Plasmopara viticola; [3]
  mit Plasmopara viticola befallene Blattfläche in %: 0%
Plasmopara viticola; [4]
  mit Plasmopara viticola befallene Blattfläche in %: 0%
Plasmopara viticola; [5]
  mit Plasmopara viticola befallene Blattfläche in %: 0%

## CCCCNCC(O)COc1ccc(C(C)(C)C)cc1 (centres unmarked) [Verbindung 1.37]
Plasmopara viticola; [3]
  mit Plasmopara viticola befallene Blattfläche in %: 0%
Plasmopara viticola; [4]
  mit Plasmopara viticola befallene Blattfläche in %: 0%
Plasmopara viticola; [5]
  mit Plasmopara viticola befallene Blattfläche in %: 0%

Reference: patent publication EP0459298A2, “Use of substituted beta-hydroxyethylamines as potent inhibitors of a fungal exoenzyme” (HOECHST AKTIENGESELLSCHAFT, priority 1990, dated 1991)
